Patent US6544989B2, “Benzazoles: benzoxazole, benzthiazole and benzimidazole derivatives” (Syngenta Limited, priority 1998, dated 2003)

Legend:
Puccinia recondita = assay: Fungicidal test, Puccinia recondita (PUCCRT) on wheat, PRCO; type: in vivo; settings: METHOD 2 (unbanded)
[1] = test system: Phytophthora infestans lycopersici; type: in vivo; settings: METHOD 2 (unbanded)
Septoria nodorum = assay: Fungicidal test, Septoria nodorum (LEPTNO) on wheat, PRCO; type: in vivo; settings: METHOD 2 (unbanded)
[2] = test system: Erysiphe graminis f.sp. tritici; assay: Fungicidal test, Erysiphe graminis f.sp. tritici (ERYSGT) on wheat, PRCO; type: in vivo; settings: METHOD 2 (unbanded)
Venturia inaequalis = assay: Fungicidal test, Venturia inaequalis (VENTIN) on apples, PRCO; type: in vivo; settings: METHOD 2 (unbanded)
Meloidogyne incognita = assay: Nematode test, J2 infective juveniles of Meloidogyne incognita, mortality; settings: 12.5 ppm; J2 infective juveniles suspended in solution; mortality after three days
Experimental: (§1) The activities of individual compounds of formula (I) were determined using a variety of pests. With the exception of nematodes, the pests were treated with a liquid composition containing 500 parts per million (ppm) by weight of a compound unless otherwise stated. Each composition was made by dissolving the compound in an acetone and ethanol (50:50 by volume) mixture and diluting the solution with water containing 0.05% by volume of a wetting agent, SYNPERONIC NP8, until the liquid composition contained the required concentration of the compound.
The test procedure for nematodes involved dissolving the compound in an acetone and ethanol (50:50 by volume) mixture and diluting the solution with water to obtain a final concentration of the compound of 12.5 ppm. J2 infective juveniles of Meloidogyne incognita were suspended in the solution in a glass vial and mortality assessed after a period of three days.

Uncinula necator = assay: Fungicidal test, Uncinula necator (UNCINE) on vines, PRCO; type: in vivo; settings: METHOD 2 (unbanded)
Musca domestica = settings: 500 ppm by weight; knockdown assessed 15 minutes after treatment
Experimental: as §1
The test procedure adopted with regard to each pest, except nematodes, was essentially the same and composed supporting a number of the pests on a medium which was usually a substrate, a host plant or a foodstuff on which the pests feed, and treating either or both the medium and the pests with a composition. Pest mortality was assessed usually between three and five days after treatment Knockdown of housefly (Musca domestica) was assessed 15 minutes after treatment

Structure (SMILES) | PUCCRT 1 d Prot/Foir PRCO (Puccinia recondita) | PHYTIN 1 d Prot/Foir PRCO [1] | LEPTNO 1 d Prot/Foir PRCO (Septoria nodorum) | ERYSGT 1 d Prot/Foir PRCO [2] | VENTIN 1 d Prot/Foir PRCO (Venturia inaequalis) | MELGIN = Meloidogyne incognita, grading of mortality (score) (Meloidogyne incognita) | UNCINE 1 d Prot/Foir PRCO (Uncinula necator) | MUSCDO AC = Musca domestica (knockdown), score (Musca domestica) | ERYSGT 6 hr Prot/Foir PRCO [2]
Cc1nsc(NC(=O)Cc2ccc3oc(C(C)Cl)nc3c2)c1Cl (racemic) [93(A3)] | 38 | 49 | 24 | 32 | 6 | 0 (0 indicates less than 40% mortality) | 10 |  | 
Cc1nc2ccc(CC(=O)Nc3snc(C)c3Cl)cc2o1 [2(A23)] | 77 | 100 | 53 | −3 |  | 0 (0 indicates less than 40% mortality) |  | 0 (0 indicates less than 40% mortality) | 
CCCc1nc2ccc(CC(=O)Nc3snc(C)c3Cl)cc2o1 [4(A23)] | 100 | 100 | 63 | 59 |  | 0 (0 indicates less than 40% mortality) |  | 0 (0 indicates less than 40% mortality) | 
CCCc1nc2cc(CC(=O)N(C)c3snc(C)c3Cl)ccc2o1 [4(B3)] | 48 | 100 |  |  |  | 0 (0 indicates less than 40% mortality) |  | 0 (0 indicates less than 40% mortality) | 
CCCc1nc2cc(CC(=O)N(CC)c3snc(C)c3Cl)ccc2o1 [4(C3)] | 96 | 79 |  |  |  | 0 (0 indicates less than 40% mortality) |  | 0 (0 indicates less than 40% mortality) | 
CCCc1nc2cc(CC(=O)N(CCC)c3snc(C)c3Cl)ccc2o1 [4(D3)] | 90 | 96 |  |  |  | 0 (0 indicates less than 40% mortality) |  | 0 (0 indicates less than 40% mortality) | 
C=CCN(C(=O)Cc1ccc2oc(CCC)nc2c1)c1snc(C)c1Cl [4(E3)] | 97 | 95 |  |  |  | 0 (0 indicates less than 40% mortality) |  | 0 (0 indicates less than 40% mortality) | 
C#CCN(C(=O)Cc1ccc2oc(CCC)nc2c1)c1snc(C)c1Cl [4(F3)] | 100 | 99 |  |  |  | 0 (0 indicates less than 40% mortality) |  | 0 (0 indicates less than 40% mortality) | 
CCCc1nc2cc(CC(=O)N(COC)c3snc(C)c3Cl)ccc2o1 [4(K3)] | 100 | 98 |  |  |  | 0 (0 indicates less than 40% mortality) |  | 0 (0 indicates less than 40% mortality) | 
CCCc1nc2cc(CC(=O)N(COCC)c3snc(C)c3Cl)ccc2o1 [4(L3)] | 100 | 100 |  |  |  | 0 (0 indicates less than 40% mortality) |  | 9 (9 indicates 80-100% mortality) | 
CCCc1nc2cc(CC(=O)N(COCCOC)c3snc(C)c3Cl)ccc2o1 [4(M3)] | 85 | 81 |  |  |  | 0 (0 indicates less than 40% mortality) |  | 0 (0 indicates less than 40% mortality) | 
CCCC(C)c1nc2cc(CC(=O)Nc3snc(C)c3Cl)ccc2o1 (stereo not shown) [12(A3)] | 100 | 100 | 17 | 95 | 63 | 9 (9 indicates 80-100% mortality) | 100 |  | 
C=CCN(C(=O)Cc1ccc2oc(CC(C)(C)C)nc2c1)c1snc(C)c1Cl [15(E3)] | 74 | 83 |  |  |  | 0 (0 indicates less than 40% mortality) |  | 0 (0 indicates less than 40% mortality) | 
C#CCN(C(=O)Cc1ccc2oc(CC(C)(C)C)nc2c1)c1snc(C)c1Cl [15(F3)] | 95 | 100 |  |  |  | 0 (0 indicates less than 40% mortality) |  | 0 (0 indicates less than 40% mortality) | 
COCCOCN(C(=O)Cc1ccc2oc(CC(C)(C)C)nc2c1)c1snc(C)c1Cl [15(M3)] | 6 | 98 |  |  |  | 0 (0 indicates less than 40% mortality) |  | 0 (0 indicates less than 40% mortality) | 
Cc1nsc(NC(=O)Cc2ccc3oc(C4CCCCC4)nc3c2)c1Cl [35(A3)] | 100 | 84 | −15 | 93 |  | 0 (0 indicates less than 40% mortality) |  | 0 (0 indicates less than 40% mortality) | 
Cc1nsc(NC(=O)Cc2ccc3oc(C4(C)CCCCC4)nc3c2)c1Cl [36(A3)] | 91 | 100 | 2 | 72 | 44 | 0 (0 indicates less than 40% mortality) | 99 |  | 
Cc1nsc(NC(=O)Cc2ccc3oc(CC4CCCC4)nc3c2)c1Cl [42(A3)] | 99 | 100 | 11 | 92 | 74 | 0 (0 indicates less than 40% mortality) | 100 |  | 92
Cc1nsc(NC(=O)Cc2ccc3oc(C=Cc4ccc([N+](=O)[O-])cc4)nc3c2)c1Cl [63(A3)] | 69 | 66 | 2 | 40 | 13 |  | 14 |  | 
Cc1nsc(NC(=O)Cc2ccc3oc(CSc4ccccc4)nc3c2)c1Cl [173(A3)] | 63 | 77 | 2 | 16 | 50 | 0 (0 indicates less than 40% mortality) | −12 |  | 
Cc1nsc(NC(=O)Cc2ccc3oc(SCC#N)nc3c2)c1Cl [228(A3)] | 6 | 66 |  |  |  | 0 (0 indicates less than 40% mortality) |  | 0 (0 indicates less than 40% mortality) | 
Cc1nsc(NC(=O)Cc2ccc3oc(C(c4ccccc4)c4ccccc4)nc3c2)c1Cl [246(A3)] | 13 | 79 | 27 | 16 | 13 | 0 (0 indicates less than 40% mortality) | −7 |  | 
Cc1nsc(NC(=O)Cc2ccc3oc(-c4ccccc4Cl)nc3c2)c1Cl [253(A3)] | 99 | 98 | 8 | 94 | 34 | 0 (0 indicates less than 40% mortality) | 100 |  | 94
COc1ccccc1-c1nc2cc(CC(=O)Nc3snc(C)c3Cl)ccc2o1 [305(A3)] | 81 | 74 | −2 | 16 | −6 | 0 (0 indicates less than 40% mortality) | 19 |  | 16
Cc1nsc(NC(=O)Cc2ccc3oc(-c4cccs4)nc3c2)c1Cl [330(A3)] | 99 | 99 | 37 | 87 | 6 | 0 (0 indicates less than 40% mortality) | 14 |  | 
Cc1nsc(NC(=O)Cc2ccc3oc(-c4ccncc4)nc3c2)c1Cl [339(A3)] | 31 | 0 | 0 | −7 |  | 0 (0 indicates less than 40% mortality) |  | 0 (0 indicates less than 40% mortality) | 
Cc1nsc(NC(=O)Cc2ccc3oc(O)nc3c2)c1Cl [351(A3)] |  |  |  |  |  | 0 (0 indicates less than 40% mortality) | 11 | 0 (0 indicates less than 40% mortality) | 
Cc1nsc(NC(=O)Cc2ccc3oc(S)nc3c2)c1Cl [352(A3)] | 100 | 100 |  |  |  | 0 (0 indicates less than 40% mortality) |  | 0 (0 indicates less than 40% mortality) | 
